Data on 20 compounds can be found in PubChem BioAssay AID248 (DTP/NCI, 2004).

Values joined by “and” are separate entries in the source; they are usually repeats but may differ in a detail not shown here. Identical values can stand only once. Inconclusive results and toxic doses are left out.

This experiment relates to L1210 leukemia ip in BDF1 mice, survival T/C. Kind of experiment: NCI In Vivo Anticancer Drug Screen. Data for tumor model L1210 Leukemia (intraperitoneal) in B6D2F1 (BDF1) mice. The note with it: endpoint: mean survival time, higher = longer survival. In outline:
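Tumor cells were implanted, animals were treated, and survival was followed. The result divides the treated measurement by the vehicle-control measurement.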

The mark [1] stands for this setting: dose: 100.0 mg/kg/injection, schedule: Q04DX002 (ip), vehicle: Klucel (hydroxypropylcellulose) (HPC).
Setting [2] is: dose: 200.0 mg/kg/injection, schedule: Q04DX002 (ip), vehicle: Klucel (hydroxypropylcellulose) (HPC).
Where [3] appears, read: dose: 100.0 mg/kg/injection, schedule: Q01DX001 (ip), vehicle: Klucel (hydroxypropylcellulose) (HPC).
The mark [4] stands for this setting: dose: 200.0 mg/kg/injection, schedule: Q01DX001 (ip), vehicle: Klucel (hydroxypropylcellulose) (HPC).
The mark [5] stands for this setting: dose: 400.0 mg/kg/injection, schedule: Q01DX001 (ip), vehicle: Klucel (hydroxypropylcellulose) (HPC).
The mark [6] stands for this setting: dose: 100.0 mg/kg/injection, schedule: Q04DX003 (ip), vehicle: saline with Tween-80.
[7] abbreviates: dose: 200.0 mg/kg/injection, schedule: Q04DX003 (ip), vehicle: saline with Tween-80.
Where [8] appears, read: dose: 400.0 mg/kg/injection, schedule: Q04DX003 (ip), vehicle: saline with Tween-80.
[9] abbreviates: dose: 100.0 mg/kg/injection, schedule: Q04DX003 (ip), vehicle: Klucel (hydroxypropylcellulose) (HPC).
Setting [10] is: dose: 200.0 mg/kg/injection, schedule: Q04DX003 (ip), vehicle: Klucel (hydroxypropylcellulose) (HPC).
[11] abbreviates: dose: 400.0 mg/kg/injection, schedule: Q04DX003 (ip), vehicle: Klucel (hydroxypropylcellulose) (HPC).
Where [12] appears, read: dose: 100.0 mg/kg/injection, schedule: Q01DX009 (ip), vehicle: saline.
The mark [13] stands for this setting: dose: 200.0 mg/kg/injection, schedule: Q01DX009 (ip), vehicle: saline.
The mark [14] stands for this setting: dose: 400.0 mg/kg/injection, schedule: Q01DX009 (ip), vehicle: saline.
The mark [15] stands for this setting: dose: 100.0 mg/kg/injection, schedule: Q04DX002 (ip), vehicle: saline with Tween-80.
Where [16] appears, read: dose: 200.0 mg/kg/injection, schedule: Q04DX002 (ip), vehicle: saline with Tween-80.
[17] abbreviates: dose: 100.0 mg/kg/injection, schedule: Q04DX003 (ip), vehicle: saline.
Where [18] appears, read: dose: 200.0 mg/kg/injection, schedule: Q04DX003 (ip), vehicle: saline.

On to `N#CCSc1ncnc2nc[nH]c12`, for which the T/C is, setting by setting: (dose: 15.0 mg/kg/injection, schedule: Q01DX010 (ip), vehicle: saline) 94 % of control and 116 % of control; (dose: 30.0 mg/kg/injection, schedule: Q01DX010 (ip), vehicle: saline) 97 % of control and 110 % of control; (dose: 50.0 mg/kg/injection, schedule: Q01DX001 (ip), vehicle: carboxymethylcellulose (CMC)) 107 % of control; (dose: 60.0 mg/kg/injection, schedule: Q01DX010 (ip), vehicle: saline) 118 % of control and 121 % of control; (dose: 62.5 mg/kg/injection, schedule: Q01DX Z (ip), vehicle: carboxymethylcellulose (CMC)) 109 % of control; (dose: 76.0 mg/kg/injection, schedule: Q01DX001 (ip), vehicle: carboxymethylcellulose (CMC)) 110 % of control. The T/C is, setting by setting: (dose: 114.0 mg/kg/injection, schedule: Q01DX001 (ip), vehicle: carboxymethylcellulose (CMC)) 107 % of control; (dose: 171.0 mg/kg/injection, schedule: Q01DX001 (ip), vehicle: carboxymethylcellulose (CMC)) 113 % of control; (dose: 256.5 mg/kg/injection, schedule: Q01DX001 (ip), vehicle: carboxymethylcellulose (CMC)) 123 % of control.

On to `CCOc1ccc2nc(C)cc(C)c2c1`, for which the T/C was 98 % of control under setting [1] and 112 % of control under setting [2].

As to `O=[N+]([O-])c1ccc(/C=C/c2ccc(S(=O)(=O)F)cc2Cl)c(Cl)c1`, the T/C by setting is: under setting [3], 97 % of control; under setting [4], 87 % of control; under setting [5], 93 % of control.

`CCN(C(=O)COc1ccc(Cl)cc1Cl)c1ccccc1C`: the T/C was 106 % of control (dose: 100.0 mg/kg/injection, schedule: Q01DX009 (ip), vehicle: saline with Tween-80); 105 % of control under setting [6]; 107 % of control (dose: 200.0 mg/kg/injection, schedule: Q01DX009 (ip), vehicle: saline with Tween-80); 102 % of control under setting [7]; 98 % of control (dose: 400.0 mg/kg/injection, schedule: Q01DX009 (ip), vehicle: saline with Tween-80); 93 % of control under setting [8].

For `O=c1cc(-c2ccccc2)[nH]c2ccc(S(=O)(=O)O)cc12`, the T/C was 93 % of control under setting [9], 106 % of control under setting [10] and 96 % of control under setting [11].

`Cc1ccccc1NC(=O)Oc1ccc(Cl)cc1Cl`: the T/C by setting is: (dose: 100.0 mg/kg/injection, schedule: Q04DX002 (ip), vehicle: gum acacia) 107 % of control; (dose: 200.0 mg/kg/injection, schedule: Q04DX002 (ip), vehicle: gum acacia) 100 % of control; (dose: 400.0 mg/kg/injection, schedule: Q04DX002 (ip), vehicle: gum acacia) 104 % of control.

`O=C(O)CSC1=NCCN1`: the T/C was 91 % of control (dose: 25.0 mg/kg/injection, schedule: Q01DX009 (ip), vehicle: saline); 92 % of control (dose: 50.0 mg/kg/injection, schedule: Q01DX009 (ip), vehicle: saline); 106 % of control and 113 % of control (dose: 50.0 mg/kg/injection, schedule: Q04DX002 (ip), vehicle: saline); 90 % of control under setting [12]; 100 % of control and 113 % of control (dose: 100.0 mg/kg/injection, schedule: Q04DX002 (ip), vehicle: saline); 93 % of control under setting [13]. The T/C is, setting by setting: (dose: 200.0 mg/kg/injection, schedule: Q04DX002 (ip), vehicle: saline) 260 % of control and 91 % of control; under setting [14], 91 % of control; (dose: 400.0 mg/kg/injection, schedule: Q04DX002 (ip), vehicle: saline) 106 % of control.

With `O=C(COc1ccc(Cl)c(Cl)c1)NCc1ccncc1`, the T/C reads like this: under setting [3], 93 % of control; under setting [4], 102 % of control; under setting [5], 102 % of control.

Consider `CCC(C)C(NC(=O)C1CSC(C)(C)N1C=O)C(=O)OC1CCCCC1` (centres undefined), for which the T/C was 98 % of control under setting [6], 97 % of control under setting [7] and 101 % of control under setting [8].

On to `CCC(Cl)COP(=O)(OCC(Cl)CC)C(C(C)C)P(=O)(OCC(Cl)CC)OCC(Cl)CC` (centres undefined), for which the T/C was 96 % of control under setting [15]; 100 % of control under setting [16]; 89 % of control (dose: 400.0 mg/kg/injection, schedule: Q04DX002 (ip), vehicle: saline with Tween-80).

Take `O=C1C=CC(=O)N1c1cccc(N2C(=O)C=CC2=O)c1`: the T/C is 102 % of control (dose: 8.0 mg/kg/injection, schedule: Q04DX003 (ip), vehicle: saline) and 95 % of control (dose: 16.0 mg/kg/injection, schedule: Q04DX003 (ip), vehicle: saline).

As for `CC(=O)NC(C)C#N` (centres undefined), the T/C was 103 % of control under setting [6], 95 % of control under setting [7] and 95 % of control under setting [8].

Regarding `COc1cc(NC(=O)Nc2cc(Cl)ccc2C)c(OC)cc1Cl`, the T/C was 97 % of control under setting [3]; 94 % of control and 88 % of control (dose: 100.0 mg/kg/injection, schedule: Q01DX009 (ip), vehicle: Klucel (hydroxypropylcellulose) (HPC)); 104 % of control under setting [1]; 103 % of control under setting [9]; 103 % of control under setting [4]; 87 % of control and 90 % of control (dose: 200.0 mg/kg/injection, schedule: Q01DX009 (ip), vehicle: Klucel (hydroxypropylcellulose) (HPC)). Further, the T/C reads like this: under setting [2], 98 % of control; under setting [10], 101 % of control; under setting [5], 95 % of control; (dose: 400.0 mg/kg/injection, schedule: Q01DX009 (ip), vehicle: Klucel (hydroxypropylcellulose) (HPC)) 88 % of control; (dose: 400.0 mg/kg/injection, schedule: Q04DX002 (ip), vehicle: Klucel (hydroxypropylcellulose) (HPC)) 89 % of control; under setting [11], 92 % of control.

With `NC(=O)C(N)=O`, the T/C reads like this: under setting [12], 93 % of control; under setting [17], 106 % of control; under setting [13], 103 % of control; under setting [18], 101 % of control; under setting [14], 101 % of control; (dose: 400.0 mg/kg/injection, schedule: Q04DX003 (ip), vehicle: saline) 97 % of control.

For `Nc1ccc(N=Nc2ccccc2Cl)c(N)n1`, the T/C (dose: 50.0 mg/kg/injection, schedule: Q01DX001 (ip), vehicle: other) was 103 % of control; the T/C (dose: 100.0 mg/kg/injection, schedule: Q01DX001 (ip), vehicle: other) is 100 % of control; the T/C (dose: 200.0 mg/kg/injection, schedule: Q01DX001 (ip), vehicle: other) was 94 % of control; the T/C (dose: 400.0 mg/kg/injection, schedule: Q01DX001 (ip), vehicle: other) is 100 % of control.

Regarding `CN(C)CC(=O)Nc1cc(Cl)ccc1Oc1ccc(Cl)cc1`, the T/C is, setting by setting: under setting [6], 94 % of control; under setting [7], 100 % of control; under setting [8], 100 % of control.

Consider `O=C(Nc1ncc([N+](=O)[O-])s1)C(F)(F)F`, for which the T/C (dose: 50.0 mg/kg/injection, schedule: Q01DX001 (ip), vehicle: saline) is 97 % of control; the T/C (dose: 100.0 mg/kg/injection, schedule: Q01DX001 (ip), vehicle: saline) is 92 % of control; the T/C (dose: 200.0 mg/kg/injection, schedule: Q01DX001 (ip), vehicle: saline) is 90 % of control; the T/C (dose: 400.0 mg/kg/injection, schedule: Q01DX001 (ip), vehicle: saline) is 105 % of control.

Take `NCCC(c1ccccc1)c1ccccc1`: the T/C (dose: 75.0 mg/kg/injection, schedule: Q01DX001 (ip), vehicle: carboxymethylcellulose (CMC)) was 104 % of control.

For the compound `O=S(=O)(NC1C2CC3C1N3N2)c1ccccc1` (centres undefined), the T/C is, setting by setting: (dose: 50.0 mg/kg/injection, schedule: Q04DX003 (ip), vehicle: saline) 90 % of control; under setting [17], 114 % of control; under setting [18], 98 % of control.

As to `[O-][n+]1ccc(CCc2ccccc2)cc1`, the T/C is, setting by setting: under setting [15], 101 % of control; under setting [16], 101 % of control.
